How the values were obtained:
ovine QR2 = assay: Ultrafiltration LC-MS binding assay for QR2
[1] = target: T1, quinone reductase 2 (QR2) (Homo sapiens, UniProt P16083); assay: QR2 assay
T1 sequence (P16083 1-231): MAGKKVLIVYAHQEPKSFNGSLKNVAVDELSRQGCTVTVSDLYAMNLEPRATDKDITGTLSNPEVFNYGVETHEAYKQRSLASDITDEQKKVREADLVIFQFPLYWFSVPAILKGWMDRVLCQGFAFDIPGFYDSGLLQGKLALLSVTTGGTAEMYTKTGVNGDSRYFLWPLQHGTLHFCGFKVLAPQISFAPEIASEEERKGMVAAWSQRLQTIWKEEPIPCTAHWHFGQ

Hepa1c1c7 cells = assay: Cytotoxicity assay; type: cell-based; details: Hepa-1c1c7, read-out: inhibition of Hepa1c1c7
MCF-7 cells = assay: Cytotoxicity assay; type: cell-based; details: Homo sapiens, MCF7, read-out: inhibition of MCF-7

`COc1c(-c2ccc(O)cc2)oc2cc(O[C@@H]3O[C@H](CO[C@@H]4O[C@@H](CO)[C@H](O)[C@H]4O)[C@@H](O)[C@H](O)[C@H]3O)cc(O)c2c1=O` [Compound 10, 4′, 5,7-trihydroxy-3-methoxyflavone-7-O-α-L-arabinofuranosyl (1→6)-β-D-glucopyranoside] was tested, and the “response in LC-MS ultrafiltration binding assay with QR2” value (ovine QR2) was “positive response”.
In the case of `COc1c(-c2ccc(O)cc2)oc2cc(O[C@@H]3O[C@H](CO)[C@@H](O)[C@H](O)[C@H]3O)cc(O)c2c1=O` [Compound 14, 4′, 5,7-trihydroxy-3-methoxyflavone-7-O-β-D-glucopyranoside], the “response in LC-MS ultrafiltration binding assay with QR2” value (ovine QR2) is reported as “positive response”.
With `O=c1c(O[C@@H]2O[C@H](CO)[C@@H](O)[C@H](O)[C@H]2O)c(-c2ccc(O)c(O)c2)oc2cc(O)cc(O)c12` [Compound 15, quercetin-3-O-β-D-glucoside] the “ability to inhibit QR2 (in words)” value [1] was “able to inhibit QR2”.
`CC(=O)O[C@H]1C(=O)[C@@]2(C)[C@H]([C@H](OC(=O)c3ccccc3)[C@]3(O)C[C@H](OC(=O)[C@H](O)[C@@H](NC(=O)c4ccccc4)c4ccccc4)C(C)=C1C3(C)C)[C@]1(OC(C)=O)CO[C@@H]1C[C@@H]2O` [paclitaxel] gave an inhibition at 23.4 µM (Hepa1c1c7 cells) of 57% and an inhibition at 23.4 µM (MCF-7 cells) of 64%.
In the case of `CC[C@]1(O)C[C@@H]2CN(CCc3c([nH]c4ccccc34)[C@@](C(=O)OC)(c3cc4c(cc3OC)N(C)[C@H]3[C@@](O)(C(=O)OC)[C@H](OC(C)=O)[C@]5(CC)C=CCN6CC[C@]43[C@@H]65)C2)C1` [vinblastine], the inhibition at 49.4 µM (Hepa1c1c7 cells) is reported as 90% and the inhibition at 49.4 µM (MCF-7 cells) is reported as 74%.

From article PMC3069126 (Journal of natural products, 2011)
